Reference: patent US20110319416A1, “Subunit Selective NMDA Receptor Antagonists For The Treatment Of Neurological Conditions” (EMORY UNIVERSITY, priority 2009, published 2011)
Where two headings read alike, the source gives them in different places.

Tests used:
NR2C = NR2C (Homo sapiens, UniProt Q05586+Q14957)
NR2D [1] = biological target: T1, NR2D (Homo sapiens, UniProt O15399+Q05586)
NR1/NR2D [2] = biological target: T2, NR1/NR2D (Rattus norvegicus, UniProt Q62645); test: Ca2+ fluorescence screening assay in NR1/NR2D expressing BHK cells (96 well); format: cell-based; design: expressed in transfected cells; host or cells: BHK-21 cells; NR1 induced by doxycyclin (Tet-On), NR2D constitutive; conditions: 10 μM test compound, 100 μM glutamate/1 mM glycine
T2 sequence (Q62645 28-1323, other chains not shown): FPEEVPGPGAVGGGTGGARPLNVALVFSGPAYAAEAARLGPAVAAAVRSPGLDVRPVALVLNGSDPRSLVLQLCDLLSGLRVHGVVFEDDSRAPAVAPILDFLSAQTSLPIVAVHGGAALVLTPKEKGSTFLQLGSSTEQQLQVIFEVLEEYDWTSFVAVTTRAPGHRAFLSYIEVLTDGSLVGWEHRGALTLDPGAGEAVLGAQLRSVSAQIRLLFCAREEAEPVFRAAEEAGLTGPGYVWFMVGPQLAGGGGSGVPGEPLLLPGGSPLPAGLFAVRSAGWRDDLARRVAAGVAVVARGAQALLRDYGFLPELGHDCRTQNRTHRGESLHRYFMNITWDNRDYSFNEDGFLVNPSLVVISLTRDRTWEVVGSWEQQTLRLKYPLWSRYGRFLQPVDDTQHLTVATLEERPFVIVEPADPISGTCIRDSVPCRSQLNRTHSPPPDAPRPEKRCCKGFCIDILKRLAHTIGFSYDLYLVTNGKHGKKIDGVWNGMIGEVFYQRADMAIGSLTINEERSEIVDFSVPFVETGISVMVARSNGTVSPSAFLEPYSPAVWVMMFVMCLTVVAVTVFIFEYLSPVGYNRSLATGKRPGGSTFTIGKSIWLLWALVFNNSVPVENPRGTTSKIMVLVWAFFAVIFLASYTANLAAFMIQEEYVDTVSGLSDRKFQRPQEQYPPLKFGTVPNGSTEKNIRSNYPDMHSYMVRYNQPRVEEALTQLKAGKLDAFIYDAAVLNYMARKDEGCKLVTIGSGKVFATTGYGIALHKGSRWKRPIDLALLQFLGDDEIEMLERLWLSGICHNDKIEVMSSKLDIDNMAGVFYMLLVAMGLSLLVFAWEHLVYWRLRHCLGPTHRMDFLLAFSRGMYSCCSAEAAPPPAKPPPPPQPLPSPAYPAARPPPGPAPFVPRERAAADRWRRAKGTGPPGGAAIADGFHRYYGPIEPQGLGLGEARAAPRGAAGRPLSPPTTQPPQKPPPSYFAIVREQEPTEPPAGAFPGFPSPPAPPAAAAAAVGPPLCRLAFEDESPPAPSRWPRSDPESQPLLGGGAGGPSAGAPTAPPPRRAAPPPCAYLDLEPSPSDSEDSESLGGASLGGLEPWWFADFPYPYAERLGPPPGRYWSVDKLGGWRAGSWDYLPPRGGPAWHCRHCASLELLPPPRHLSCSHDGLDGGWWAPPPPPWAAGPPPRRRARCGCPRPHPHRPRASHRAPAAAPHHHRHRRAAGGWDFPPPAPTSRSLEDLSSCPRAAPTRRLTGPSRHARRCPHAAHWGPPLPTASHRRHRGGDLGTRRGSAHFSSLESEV

NR1/NR2A = NR1/NR2A (Rattus norvegicus, UniProt P35439+Q00959); test: Two electrode voltage clamp, Xenopus oocytes expressing recombinant NR1/NR2A; format: cell-based; conditions: logistic fit, minimum forced to 0; read-out: 2A IC50
Description: (§1) Quality of synthesized cRNA was assessed by gel electrophoresis, and quantity was estimated by spectroscopy and gel electrophoresis. Stage V and VI oocytes were surgically removed from the ovaries of large, well-fed and healthy Xenopus laevis anesthetized with 3-amino-benzoic acid ethyl ester (3 gm/l) as previously described. Clusters of isolated oocytes were incubated with 292 U/ml Worthington (Freehold, N.J.) type IV collagenase or 1.3 mg/ml collagenase (Life Technologies, Gaithersburg, MD; 17018-029) for 2 hr in Ca^2+-free solution comprised of (in mM) 115 NaCl, 2.5 KCl, and 10 HEPES, pH 7.5, with slow agitation to remove the follicular cell layer. Oocytes were then washed extensively in the same solution supplemented with 1.8 mM CaCl2 and maintained in Barth's solution comprised of (in mM): 88 NaCl, 1 KCl, 2.4 NaHCO3, 10 HEPES, 0.82 MgSO4, 0.33 Ca(NO3)2, and 0.91 CaCl2 and supplemented with 100 μg/m1 gentamycin, 10 μg/ml streptomycin, and 10 μg/ml penicillin. Oocytes were manually defolliculated and injected within 24 hrs of isolation with 3-5 ng of NR1 subunit cRNA and 7-10 ng of NR2 cRNA subunit in a 50 nl volume, or 5-10 ng of AMPA or kainate receptor cRNAs in a 50 nl volume, and incubated in Barth's solution at 18° C. for 1-7 d. Glass injection pipettes had tip sizes ranging from 10-20 microns, and were backfilled with mineral oil.
(§2) Two electrode voltage-clamp recordings were made 2-7 days post-injection as previously described. Oocytes were placed in a dual-track plexi-glass recording chamber with a single perfusion line that splits in a Y-configuration to perfuse two oocytes. Dual recordings were made at room temperature (23° C.) using two Warner OC725B two-electrode voltage clamp amplifiers, arranged as recommended by the manufacturer. Glass microelectrodes (1-10 Megaohms) were filled with 300 mM KCl (voltage electrode) or 3 M KCl (current electrode). The bath clamps communicated across silver chloride wires placed into each side of the recording chamber, both of which were assumed to be at a reference potential of 0 mV. Oocytes were perfused with a solution comprised of (in mM) 90 NaCl, 1 KCl, 10 HEPES, and 0.5 BaCl2; pH was adjusted by addition of 1-3 M NaOH of HC1 to 7.4. Oocytes were recorded under voltage clamp at −40 mV. […] In some experiments, 10 μM EDTA was obtained by adding a 1:1000 dilution of 10 mM EDTA, in order to chelate contaminant divalent ions such as Zn^2+. […] Concentration effect curves consisting of 4 to 8 concentrations were obtained in this manner. The baseline leak current at −40 mV was measured before and after recording, and the full recording linearly corrected for any change in leak current. […] Each experiment consisted of recordings from 3 to 10 oocytes obtained from a single frog. Results from multiple experiments were pooled, and the average percent responses at antagonist concentrations were fitted by the equation,
(§3) Percent Response=(100−minimum)/(1+([conc]/IC50)nH)+minimum

NR1/NR2B = NR1/NR2B (Rattus norvegicus, UniProt P35439+Q00960); test: Two electrode voltage clamp, Xenopus oocytes expressing recombinant NR1/NR2B; format: cell-based; conditions: logistic fit, minimum forced to 0; read-out: 2B IC50
Description: as §1, §2, §3

NR1/NR2C [3] = biological target: NR1/NR2C (Rattus norvegicus, UniProt P35439+Q00961); test: Two electrode voltage clamp, Xenopus oocytes expressing recombinant NR1/NR2C; format: cell-based; conditions: logistic fit, minimum forced to 0; read-out: 2C IC50
Description: as §1, §2, §3

NR1/NR2C [4] = biological target: NR1/NR2C (Rattus norvegicus, UniProt Q00961); test: as above; format: cell-based; conditions: logistic fit, minimum forced to 0; read-out: 2C IC50
Description: as §1, §2, §3

NR1/NR2D [5] = biological target: NR1/NR2D (Rattus norvegicus, UniProt P35439+Q62645); test: Two electrode voltage clamp, Xenopus oocytes expressing recombinant NR1/NR2D; format: cell-based; conditions: logistic fit, minimum forced to 0; read-out: 2D IC50
Chain of NR1/NR2D (Rattus norvegicus, UniProt P35439+Q62645) (Q62645 28-1323, other chains not shown): as above
Description: as §1, §2, §3

NR1/NR2D [6] = biological target: T2, NR1/NR2D; test: as above; format: cell-based; conditions: logistic fit, minimum forced to 0; read-out: 2D IC50
Description: as §1, §2, §3

GluR1 = GluR1 (Rattus norvegicus, UniProt P19490); test: Two electrode voltage clamp, Xenopus oocytes expressing GluR1; format: cell-based; conditions: logistic fit, minimum forced to 0
Chain of GluR1 (P19490 19-907): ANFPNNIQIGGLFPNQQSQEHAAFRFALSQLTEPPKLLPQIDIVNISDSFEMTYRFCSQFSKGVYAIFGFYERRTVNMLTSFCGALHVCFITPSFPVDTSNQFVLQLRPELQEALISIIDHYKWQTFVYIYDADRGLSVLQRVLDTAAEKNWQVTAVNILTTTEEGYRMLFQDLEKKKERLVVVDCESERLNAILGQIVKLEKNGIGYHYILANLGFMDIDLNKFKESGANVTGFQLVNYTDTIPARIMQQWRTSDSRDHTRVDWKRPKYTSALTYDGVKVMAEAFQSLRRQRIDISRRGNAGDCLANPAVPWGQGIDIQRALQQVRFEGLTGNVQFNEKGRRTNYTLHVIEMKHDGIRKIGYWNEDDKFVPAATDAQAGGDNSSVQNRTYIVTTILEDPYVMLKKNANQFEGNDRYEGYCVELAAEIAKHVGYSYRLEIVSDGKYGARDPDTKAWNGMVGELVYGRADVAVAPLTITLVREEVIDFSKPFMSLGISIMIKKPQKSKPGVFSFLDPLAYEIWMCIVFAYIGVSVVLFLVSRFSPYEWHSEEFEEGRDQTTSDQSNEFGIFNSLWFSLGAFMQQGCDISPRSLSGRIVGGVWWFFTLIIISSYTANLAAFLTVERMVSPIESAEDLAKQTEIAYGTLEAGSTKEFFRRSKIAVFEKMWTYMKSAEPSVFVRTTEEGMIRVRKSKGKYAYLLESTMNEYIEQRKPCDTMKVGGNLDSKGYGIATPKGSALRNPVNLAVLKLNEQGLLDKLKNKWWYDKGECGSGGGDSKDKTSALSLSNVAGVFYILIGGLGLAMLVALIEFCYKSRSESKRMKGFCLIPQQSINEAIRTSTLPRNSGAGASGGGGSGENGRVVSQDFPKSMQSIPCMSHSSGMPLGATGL
Description: as §1, §2, §3

NR2D [7] = biological target: T1, NR2D; test: Literature functional antagonist potency at NR2D (Table 1); format: cell-based
NR2A = NR2A (Homo sapiens, UniProt Q05586+Q12879); conditions: cited from earlier work
NR2B [8] = biological target: T3, NR2B (Homo sapiens, UniProt Q05586+Q13224)
T3 sequence (Q13224 27-1484, other chains not shown): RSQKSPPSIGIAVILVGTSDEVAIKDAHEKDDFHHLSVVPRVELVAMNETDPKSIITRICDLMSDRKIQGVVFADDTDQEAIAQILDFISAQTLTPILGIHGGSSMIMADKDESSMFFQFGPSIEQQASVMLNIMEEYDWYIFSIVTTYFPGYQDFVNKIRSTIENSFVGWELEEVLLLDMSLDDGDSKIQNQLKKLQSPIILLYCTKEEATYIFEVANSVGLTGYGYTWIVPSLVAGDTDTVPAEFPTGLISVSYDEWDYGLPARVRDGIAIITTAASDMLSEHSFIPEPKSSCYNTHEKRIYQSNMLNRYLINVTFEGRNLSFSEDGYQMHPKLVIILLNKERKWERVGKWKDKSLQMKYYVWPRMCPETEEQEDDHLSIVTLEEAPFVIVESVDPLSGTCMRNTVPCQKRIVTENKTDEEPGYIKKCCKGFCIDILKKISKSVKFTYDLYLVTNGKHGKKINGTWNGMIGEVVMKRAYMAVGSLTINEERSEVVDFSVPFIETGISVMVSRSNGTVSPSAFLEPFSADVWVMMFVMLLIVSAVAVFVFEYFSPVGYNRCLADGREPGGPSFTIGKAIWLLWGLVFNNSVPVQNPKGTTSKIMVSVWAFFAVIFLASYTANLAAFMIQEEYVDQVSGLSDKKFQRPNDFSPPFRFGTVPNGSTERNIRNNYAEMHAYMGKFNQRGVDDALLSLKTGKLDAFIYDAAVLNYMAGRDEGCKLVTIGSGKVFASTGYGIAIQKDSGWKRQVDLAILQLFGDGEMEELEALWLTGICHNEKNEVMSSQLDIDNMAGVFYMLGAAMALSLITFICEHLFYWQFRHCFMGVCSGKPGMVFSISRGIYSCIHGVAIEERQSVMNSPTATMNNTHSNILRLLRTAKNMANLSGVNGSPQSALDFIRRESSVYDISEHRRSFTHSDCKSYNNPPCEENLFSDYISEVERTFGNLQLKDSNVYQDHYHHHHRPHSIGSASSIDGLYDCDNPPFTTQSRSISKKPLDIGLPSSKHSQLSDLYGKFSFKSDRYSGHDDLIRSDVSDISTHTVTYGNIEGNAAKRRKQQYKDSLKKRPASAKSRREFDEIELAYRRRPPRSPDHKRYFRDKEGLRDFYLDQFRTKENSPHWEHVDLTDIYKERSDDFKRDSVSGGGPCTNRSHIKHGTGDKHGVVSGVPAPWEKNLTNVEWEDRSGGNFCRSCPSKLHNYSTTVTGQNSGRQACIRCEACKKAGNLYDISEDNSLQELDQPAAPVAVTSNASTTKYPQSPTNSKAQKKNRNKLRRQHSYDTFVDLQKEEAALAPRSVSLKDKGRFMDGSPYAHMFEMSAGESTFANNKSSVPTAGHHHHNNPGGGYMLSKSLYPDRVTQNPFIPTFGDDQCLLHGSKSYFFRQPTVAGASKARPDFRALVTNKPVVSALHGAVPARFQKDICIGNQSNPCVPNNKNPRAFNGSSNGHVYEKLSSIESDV

NR2B [9] = biological target: T3, NR2B; test: Literature functional antagonist potency at NR2B (Table 1)

T1 sequence (O15399 28-1336, other chains not shown): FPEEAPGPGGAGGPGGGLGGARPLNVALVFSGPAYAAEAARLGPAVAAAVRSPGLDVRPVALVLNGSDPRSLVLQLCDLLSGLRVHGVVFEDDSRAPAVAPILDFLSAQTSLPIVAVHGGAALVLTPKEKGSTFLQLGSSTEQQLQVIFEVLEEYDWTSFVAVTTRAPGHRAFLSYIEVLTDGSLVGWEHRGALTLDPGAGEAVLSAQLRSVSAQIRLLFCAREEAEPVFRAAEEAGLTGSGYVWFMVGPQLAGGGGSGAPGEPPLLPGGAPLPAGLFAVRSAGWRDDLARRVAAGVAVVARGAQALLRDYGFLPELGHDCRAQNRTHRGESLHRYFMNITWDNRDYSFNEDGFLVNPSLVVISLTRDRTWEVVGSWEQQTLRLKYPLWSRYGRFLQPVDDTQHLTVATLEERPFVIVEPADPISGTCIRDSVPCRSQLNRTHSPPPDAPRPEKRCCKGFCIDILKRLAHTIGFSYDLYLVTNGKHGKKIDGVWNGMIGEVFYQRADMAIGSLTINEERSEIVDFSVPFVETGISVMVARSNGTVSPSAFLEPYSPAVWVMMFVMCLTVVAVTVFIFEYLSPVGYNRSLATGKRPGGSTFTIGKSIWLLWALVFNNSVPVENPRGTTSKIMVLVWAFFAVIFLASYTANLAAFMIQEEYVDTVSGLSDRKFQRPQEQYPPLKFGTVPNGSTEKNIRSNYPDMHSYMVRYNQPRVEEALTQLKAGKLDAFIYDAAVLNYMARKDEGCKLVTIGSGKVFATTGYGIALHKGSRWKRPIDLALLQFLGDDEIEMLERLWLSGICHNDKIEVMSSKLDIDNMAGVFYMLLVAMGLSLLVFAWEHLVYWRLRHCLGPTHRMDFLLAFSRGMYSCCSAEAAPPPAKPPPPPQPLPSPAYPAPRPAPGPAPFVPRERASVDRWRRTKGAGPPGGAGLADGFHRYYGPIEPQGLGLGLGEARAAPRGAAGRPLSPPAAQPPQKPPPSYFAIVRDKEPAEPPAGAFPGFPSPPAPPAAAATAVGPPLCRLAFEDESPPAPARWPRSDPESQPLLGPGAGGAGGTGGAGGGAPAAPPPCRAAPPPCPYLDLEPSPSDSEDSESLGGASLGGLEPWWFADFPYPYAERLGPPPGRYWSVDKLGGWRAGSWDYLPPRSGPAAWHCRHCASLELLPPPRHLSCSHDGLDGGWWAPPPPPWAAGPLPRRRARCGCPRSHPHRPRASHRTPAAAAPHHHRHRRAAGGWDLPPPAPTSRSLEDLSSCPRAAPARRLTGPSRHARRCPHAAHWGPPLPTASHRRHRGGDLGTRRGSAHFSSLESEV

SMILES: C[C@]12N[C@H](Cc3ccccc31)c1ccccc12 [(—)MK-801]
- IC50 (NR2C; non-competitive and uncompetitive antagonists; read-out: 2C (μM) IC50; cited from earlier work): 0.04 µM
- IC50 (NR2D [1]; non-competitive and uncompetitive antagonists; read-out: 2D (μM) IC50; cited from earlier work): 0.17 µM
- identification in test screen of NR1/NR2D expressing BHK cells (NR1/NR2D [2]): successfully identified

SMILES: C=CCN1CC[C@]23CCCC[C@H]2[C@H]1Cc1ccc(O)cc13 [levallorphan]
- identification in test screen of NR1/NR2D expressing BHK cells (NR1/NR2D [2]): successfully identified

SMILES: Cc1ccc2[nH]c(=O)c(C3=NN(C(=O)CCC(=O)O)C(c4ccc(Br)cc4)C3)c(-c3ccccc3)c2c1 (stereo not shown) [compound 1105]
- IC50 (NR1/NR2A): 218000 nM
- IC50 (NR1/NR2B): 74000 nM
- IC50 (NR1/NR2C [3]): 7000 nM
- IC50 (NR1/NR2C [4]): 7000 nM
- IC50 (NR1/NR2D [5]): 3000 nM
- IC50 (NR1/NR2D [6]): 3000 nM
- IC50 (GluR1): 109000 nM

SMILES: COc1ccc2c(c1)[C@]13CCCC[C@@H]1[C@H](C2)N(C)CC3 [Dextromethorphan]
- 2A/2D (ratio of IC50) (NR2D [7]; IC50 ratio): 7.5
- IC50 (NR2A; read-out: 2A (μM) IC50, non-competitive and uncompetitive antagonists): 11.3 µM
- IC50 (NR2B [8]; read-out: 2B (μM) IC50; non-competitive and uncompetitive antagonists; cited from earlier work): 3.7 µM
- IC50 (NR2C; read-out: 2C (μM) IC50; non-competitive and uncompetitive antagonists; cited from earlier work): 1.1 µM
- IC50 (NR2D [1]; read-out: 2D (μM) IC50; non-competitive and uncompetitive antagonists; cited from earlier work): 1.5 µM
- 2A/2B (ratio of IC50) (NR2B [9]; IC50 ratio): 3.1

SMILES: O=c1[nH]c2cc(Cl)c(Cl)c([N+](=O)[O-])c2[nH]c1=O [ACEA-1021]
- 2A/2D (ratio of Kb) (NR2D [7]; Kb ratio): 0.4
- Kb (NR2A; Kb determined by Schild analysis, read-out: 2A (μM) Kb): 0.004 µM
- Kb (NR2B [8]; Kb determined by Schild analysis; read-out: 2B (μM) Kb; cited from earlier work): 0.004 µM
- Kb (NR2C; Kb determined by Schild analysis; read-out: 2C (μM) Kb; cited from earlier work): 0.003 µM
- Kb (NR2D [1]; Kb determined by Schild analysis; read-out: 2D (μM) Kb; cited from earlier work): 0.011 µM
- 2A/2B (ratio of Kb) (NR2B [9]; Kb ratio): 1.0

SMILES: CCc1cccc(N(C)C(N)=Nc2cccc3ccccc23)c1 [CNS-1102]
- identification in test screen of NR1/NR2D expressing BHK cells (NR1/NR2D [2]): successfully identified

SMILES: N=C(N)c1ccc(OCCCCCOc2ccc(C(=N)N)cc2)cc1 [Pentamidine]
- IC50 (NR2B [8]; non-competitive and uncompetitive antagonists; read-out: 2B (μM) IC50; cited from earlier work): 1.5 µM
